# In patent US7098247B2, “Arylene-carboxylic acid (2-amino-phenyl)-amide derivatives” (Hoffmann-La Roche Inc., priority 2002, dated 2006):
# System: histone deacetylase (HDAC)
# Test: cellular acetylation assay (acetylation of histones monitored in PC3 cells, ELISA)
# Format: cell-based
# Settings: PC3 human prostate carcinoma cells; compound 1 uM; 24 h incubation; antibodies against acetylated histone H3 or H4
# Procedure: Therein, acetylation of histones is monitored in PC3 cells. High acetylation means inhibition of histone deacetylase by compounds. Cell viability is monitored in parallel to estimate the cytotoxicity of the compounds.
# PC3 cells, human prostate carcinoma cells, are seeded as 1800 cells per well of 384-well microtiterplate in RPMI 1640 (including 5% FCS, 2 mM glutamine and pen/strep). After 48 h at 37° C., pre-diluted compounds are added at a final concentration of 1 uM. Compounds are pre-diluted 1:10 in dimethyl sulfoxide (DMSO) or medium resulting in a final concentration of DMSO of 0.5%.
# After 24 h, incubation the cell viability is determined by adding cell proliferation reagent WST1. Another 60 min. later, the optical density (OD) is measured (450 nm versus 690 nm).
# After WST1 assay, the cell layer is prepared for the ELISA reaction. Medium is aspirated and cells are fixed in ethanol at −20° C. for 60 min. After washing with PBS/Tween, the blocking solution (PBS/ 5% FCS/Tween) is added and the cell layer is washed again. Antibodies against histone H3 or H4 (Anti-Acetylated Histone (rabbit polyclonal IgG), Upstate Biotechnologie) are added at a dilution of 1:200 for 60 min at 37° C. As a second antibody, goat anti-rabbit IgG(H+L) human IgG adsorbed-HRP conjugate (Dako) is used (1:2000 diluted). Cells are washed 3 times and the peroxidase substrate ABTS is allowed to react for 30–60 min at 37° C. Oxalic acid stops the reaction, and the OD is measured at 405 nm.
# The percentage of acetylation is calculated after subtraction of blank O.D.s: […]
row,SMILES,"cell acetylation (PC3, 1 μM) [% of control]"
1,"Nc1ccccc1NC(=O)c1ccc(CNC(=O)NCC2CC2)cc1 [Example 6-29, N-(2-Amino-phenyl)-4-(3-cyclopropylmethyl-ureidomethyl)-benzamide]",187 % of control
2,"C=CCNC(=O)NCc1ccc(C(=O)Nc2ccccc2N)s1 [Example 6-12, 5-[(3-Allyl-ureido)-methyl]-thiophene-2-carboxylic acid (2-amino-phenyl)-amide]",170 % of control
3,"CCCC(=O)NCc1ccc(C(=O)Nc2ccccc2N)s1 [Example 4-6, 5-(Butyrylamino-methyl)-thiophene-2-carboxylic acid (2-amino-phenyl)-amide]",238 % of control
4,"CN(C)CC(C)(C)CNC(=O)NCc1ccc(C(=O)Nc2ccccc2N)cc1 [Example 6-19, N-(2-Amino-phenyl)-4-[3-(3-dimethylamino-2,2-dimethyl-propyl)-ureidomethyl]-benzamide]",205 % of control
5,"C=CCNC(=O)NCc1ccc(C(=O)Nc2ccccc2N)cc1 [Example 6-27, 4-[(3-Allyl-ureido)-methyl]-N-(2-amino-phenyl)-benzamide]",175 % of control
6,"CCOCCCNC(=O)NCc1ccc(C(=O)Nc2ccccc2N)cc1 [Example 6-26, N-(2-Amino-phenyl)-4-[3-(3-ethoxy-propyl)-ureidomethyl]-benzamide]",179 % of control
7,"Nc1ccccc1NC(=O)c1ccc(CNC(=O)CC2C=CCC2)cc1 (stereo not drawn) [Example 4-31, N-(2-Amino-phenyl)-4-[(2-cyclopent-2-enyl-acetylamino)-methyl]-benzamide]",176 % of control
8,"CCCCCNC(=O)NCc1ccc(C(=O)Nc2ccccc2N)cn1 [Example 6-38, N-(2-Amino-phenyl)-6-[(3-pentyl-ureido)-methyl]-nicotinamide]",178 % of control
9,"Nc1ccccc1NC(=O)c1ccc(CNC(=O)C2CCCC2)s1 [Example 4-1, 5-[(Cyclopentanecarbonyl-amino)-methyl]-thiophene-2-carboxylic acid (2-amino-phenyl)-amide]",170 % of control
10,"CCCCCC(C)NC(=O)NCc1ccc(C(=O)Nc2ccccc2N)cc1 (stereo not drawn) [Example 6-25, N-(2-Amino-phenyl)-4-[3-(1-methyl-hexyl)-ureidomethyl]-benzamide]",192 % of control
11,"CC(=O)Nc1ccc(C(=O)Nc2ccccc2N)cc1 [CI 994, reference compound]",152 % of control
12,"CC(C)CNC(=O)NCc1ccc(C(=O)Nc2ccccc2N)s1 [Example 6-13, 5-(3-Isobutyl-ureidomethyl)-thiophene-2-carboxylic acid (2-amino-phenyl)-amide]",178 % of control
13,"CCOCC(=O)NCc1ccc(C(=O)Nc2ccccc2N)s1 [Example 4-3, 5-[(2-Ethoxy-acetylamino)-methyl]-thiophene-2-carboxylic acid (2-amino-phenyl)-amide]",194 % of control
14,"CC(C)OCCCNC(=O)NCc1ccc(C(=O)Nc2ccccc2N)cc1 [Example 6-28, N-(2-Amino-phenyl)-4-[3-(3-isopropoxy-propyl)-ureidomethyl]-benzamide]",177 % of control
15,"CCC(C)CNC(=O)NCc1ccc(C(=O)Nc2ccccc2N)s1 (stereo not drawn) [Example 6-8, 5-[3-(2-Methyl-butyl)-ureidomethyl]-thiophene-2-carboxylic acid (2-amino-phenyl)-amide]",198 % of control
